Values belong to the molecule of their own block, whether it stands above or below them.
Tests used:
[1] = Rotarod (impaired motor skills) after intrathecal delivery to rats; format: in vivo; conditions: equivalent doses, data not shown
Method: Studies were performed to examine the effects of different baclofen compositions delivered intrathecally to rats. In one study, the therapeutic response mediated by spinal GABA-b receptors (thermal analgesia) with a nonspecific side effect (impaired motor skills on the rotarod) caused by L or DL-baclofen were compared. Equivalent doses of L-baclofen and DL-baclofen (adjusted to deliver the same amount of L-baclofen) produced very similar analgesic activity in the thermal nociception assay, while D-baclofen was ineffective (data not shown).

[2] = Comparison of R isomer and racemic baclofen for solubility, stability and pH; format: physicochemical; conditions: data not shown
Source text: Accordingly, the Examples presented herein, which employed a racemic mixture, are also applicable to the L-isomer […].

[3] = pH profile of baclofen prior to steam sterilization and 4-CPP impurity levels post-steam sterilization; format: physicochemical; design: unit not given here; conditions: 4-CPP post-steam sterilization
Source text: In some embodiments, the present application provides methods and baclofen formulations having low 4-CPP concentrations by controlling the pH of the baclofen solution prior to steam sterilization, where the pH is in the range of between about 4.0 to about 7.0, the amount of 4-CPP formed is reduced, when the pH is raised to between about 5.0 to about 7.0 after heat sterilization. In some embodiments, the 4-CPP impurity levels are low at a pH of between about 4.0 to about 4.5. The pH profile of the baclofen, prior to steam sterilization and the 4-CPP impurity levels post-steam sterilization are shown below in Table A.

[4] = Stability of baclofen in sulfate or phosphate solutions over 9 weeks; format: physicochemical; conditions: phosphate or sulfate buffer with NaCl, pH 6, aqueous buffer
Method: The formulations were stored at 37° C., ambient temperature, and 4° C. over 9 weeks. pH, drug concentration, and 4-CPP were measured. Physical properties, such as particulate, precipitation, color and the like were observed.

[5] = therapeutically effective intrathecal concentrations, injected into the intrathecal space of a patient; cited from earlier work
[6] = reported by some sources; equilibrium with particulate baclofen present; cited from earlier work

SMILES: NC[C@H](CC(=O)O)c1ccc(Cl)cc1 [D-baclofen]
motor impairment on the rotarod [1]: no significant effect

SMILES: NC[C@H](CC(=O)O)c1ccc(Cl)cc1 (single isomer, unassigned) [R isomer]
solubility, stability and pH relative to racemic mixtures of baclofen [2]: behave essentially the same

Impurity Level of 4-CPP ([3]; pH 4.0 prior to steam sterilization): 1.7 | Impurity Level of 4-CPP ([3]; pH 4.2 prior to steam sterilization): 1.3 | Impurity Level of 4-CPP ([3]; pH 4.4 prior to steam sterilization): 1.1 | Impurity Level of 4-CPP ([3]; pH 4.6 prior to steam sterilization): 0.7 | Impurity Level of 4-CPP ([3]; pH 4.8 prior to steam sterilization): 0.5 | Impurity Level of 4-CPP ([3]; pH 5.0 prior to steam sterilization): 0.4 | Impurity Level of 4-CPP ([3]; pH 5.2 prior to steam sterilization): 0.4 | Impurity Level of 4-CPP ([3]; pH 5.4 prior to steam sterilization): 0.5 | Impurity Level of 4-CPP ([3]; pH 5.6 prior to steam sterilization): 0.6 | Impurity Level of 4-CPP ([3]; pH 5.8 prior to steam sterilization): 0.7 | Impurity Level of 4-CPP ([3]; pH 6.0 prior to steam sterilization): 0.8 | Impurity Level of 4-CPP ([3]; pH 6.2 prior to steam sterilization): 0.9 | Impurity Level of 4-CPP ([3]; pH 6.4 prior to steam sterilization): 1.1 | Impurity Level of 4-CPP ([3]; pH 6.6 prior to steam sterilization): 1.2 | Impurity Level of 4-CPP ([3]; pH 6.8 prior to steam sterilization): 1.4 | Impurity Level of 4-CPP ([3]; pH 7.0 prior to steam sterilization): 1.5 | solubility at 9 weeks [4]: ≥ 4000 µg/mL
SMILES: NCC(CC(=O)O)c1ccc(Cl)cc1 (stereo not shown) [Baclofen, 4-amino-3-(p-chlorophenyl)butyric acid]
plasma concentrations, intrathecal relative to oral administration [5]: 100 times less | upper limit on room temperature aqueous solubility [6]: about 4 mg/mL

SMILES: NC[C@H](CC(=O)O)c1ccc(Cl)cc1 [L-baclofen]
motor impairment on the rotarod [1]: statistically less motor impairment on the rotarod than DL-baclofen
